Consider four compounds from patent US7514571B2, “Bicyclo derivative” (Kyorin Pharmaceutical Co., Ltd., priority 2004, dated 2009).

For test [1], the target named is T1, plasma dipeptidylpeptidase IV (Mus musculus, UniProt P28843).
T1 construct: The blood samples were centrifuged at 6000 rpm for 2 minutes to separate plasma; from tissue; host or cells: plasma of male ICR mice (Charles River Laboratories Japan)
Description: Inhibition of plasma dipeptidylpeptidase IV activity in mice by oral administration. The format is in vivo. To be noted: male ICR mice, 0.1 mg/mL suspension at 10 mL/kg, 30 minutes after administration. The procedure:
Each compound was suspended in 0.3% sodium carboxymethylcellulose to a concentration of 0.1 mg/mL. The preparation was orally administered to 8 weeks old male ICR mice (Charles River Laboratories Japan) at a dose of 10 mL/kg. Using an EDTA 2K-treated capillary tube, blood samples were collected from the tail vein before administration and 30 minutes after administration. The blood samples were centrifuged at 6000 rpm for 2 minutes to separate plasma. […] The inhibition was determined from the decrease in the enzymatic activity from the initial activity (% inhibition={(activity before administration−activity after administration)/(activity before administration)}×100).

In test [2] the target is T2, plasma dipeptidylpeptidase IV (Homo sapiens, UniProt P27487).
T2 construct: 20 μL of plasma diluted 8-fold with saline in a well of a 96-well flat bottom plate; from tissue
As to the kind of experiment: In vitro dipeptidylpeptidase IV inhibition (H-Gly-Pro-AMC hydrolysis by plasma, fluorometry). Type of test: biochemical. Particulars: plasma diluted 8-fold, H-Gly-Pro-AMC.HBr substrate, room temperature, 20 minutes. The procedure:
The concentration of free 7-amino-4-methyl-coumarin (AMC) generated by hydrolysis of H-Gly-Pro-AMC.HBr substrate by plasma dipeptidylpeptidase IV was determined by fluorometry.
A 20 μL of buffer (25 mmol/L hepes, 140 mmol/L sodium chloride, 1% bovine serum albumin, 80 mmol/L magnesium chloride hexahydrate, pH 7.4) containing each compound was added to 20 μL of plasma diluted 8-fold with saline in a well of a 96-well flat bottom plate. The plate was left at room temperature for 5 minutes and 10 μL of 0.1 mmol/L H-Gly-Pro-AMC.HBr solution was added to each well to initiate the reaction. […] Using a fluorescent plate reader, the free AMC concentration was determined by exciting the samples at 355 nm and measuring the fluorescence intensity at 460 nm.

Molecules are shown by their SMILES.

T2 sequence (P27487 39-766 limits assumed): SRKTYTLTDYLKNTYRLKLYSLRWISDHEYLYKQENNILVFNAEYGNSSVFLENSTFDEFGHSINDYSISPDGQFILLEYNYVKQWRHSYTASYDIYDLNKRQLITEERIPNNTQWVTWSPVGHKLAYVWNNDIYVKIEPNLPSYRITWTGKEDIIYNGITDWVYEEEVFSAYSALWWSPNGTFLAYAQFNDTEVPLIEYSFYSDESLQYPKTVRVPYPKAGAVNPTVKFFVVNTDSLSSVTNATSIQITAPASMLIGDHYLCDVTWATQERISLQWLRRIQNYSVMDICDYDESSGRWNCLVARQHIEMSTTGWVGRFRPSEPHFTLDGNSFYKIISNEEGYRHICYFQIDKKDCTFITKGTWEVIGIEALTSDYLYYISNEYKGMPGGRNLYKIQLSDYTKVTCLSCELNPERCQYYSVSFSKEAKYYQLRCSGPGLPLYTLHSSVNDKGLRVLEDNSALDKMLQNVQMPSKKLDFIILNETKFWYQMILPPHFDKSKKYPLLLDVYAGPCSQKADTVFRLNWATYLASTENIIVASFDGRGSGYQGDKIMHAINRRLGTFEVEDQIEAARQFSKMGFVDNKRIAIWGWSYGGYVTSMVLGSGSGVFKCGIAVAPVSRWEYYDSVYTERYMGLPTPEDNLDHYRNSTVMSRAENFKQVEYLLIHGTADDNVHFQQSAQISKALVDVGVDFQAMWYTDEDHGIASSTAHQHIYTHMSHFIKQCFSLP
T1 sequence (P28843 37-760 limits assumed): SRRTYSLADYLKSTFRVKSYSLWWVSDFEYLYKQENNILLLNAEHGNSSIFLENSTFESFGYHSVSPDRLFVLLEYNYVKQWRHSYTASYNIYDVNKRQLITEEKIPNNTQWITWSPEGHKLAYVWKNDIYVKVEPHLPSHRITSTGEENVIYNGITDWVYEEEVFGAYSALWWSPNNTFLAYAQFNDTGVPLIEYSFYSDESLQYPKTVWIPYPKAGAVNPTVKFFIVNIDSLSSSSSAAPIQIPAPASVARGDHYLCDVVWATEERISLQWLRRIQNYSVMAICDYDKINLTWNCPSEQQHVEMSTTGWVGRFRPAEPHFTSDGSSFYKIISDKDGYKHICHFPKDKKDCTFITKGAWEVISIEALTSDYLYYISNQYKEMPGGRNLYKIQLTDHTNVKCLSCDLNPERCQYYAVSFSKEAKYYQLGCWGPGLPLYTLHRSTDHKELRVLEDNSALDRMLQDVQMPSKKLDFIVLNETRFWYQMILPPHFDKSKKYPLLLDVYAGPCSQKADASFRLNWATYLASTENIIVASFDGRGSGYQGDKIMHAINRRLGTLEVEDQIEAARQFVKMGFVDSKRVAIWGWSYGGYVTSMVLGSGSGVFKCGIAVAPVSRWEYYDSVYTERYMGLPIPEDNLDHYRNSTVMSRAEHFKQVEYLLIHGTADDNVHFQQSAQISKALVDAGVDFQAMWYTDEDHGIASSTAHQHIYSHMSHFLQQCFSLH

For `N#C[C@@H]1C[C@H](F)CN1C(=O)CNC12CCC(F)(CC1)CC2` [Example 7, (2S,4S)-1-[[N-(4-fluorobicyclo[2,2,2]oct-1-yl)amino]acetyl]-4-fluoropyrrolidine-2-carbonitrile], the inhibition – broadly, the relative decrease from the control value, in per cent – at 1 mg/kg in test [1] was 91%.

For the compound `N#C[C@@H]1C[C@H](F)CN1C(=O)CNC12CCC(C(=O)O)(CC1)CC2` [Example 1, (2S,4S)-1-[[N-(4-carboxybicyclo[2,2,2]oct-1-yl)amino]acetyl]-4-fluoropyrrolidine-2-carbonitrile], in test [2], the IC50 (usually the midpoint of a concentration-inhibition curve) was 3.1 nM.

As for `CC12CCC(NCC(=O)N3C[C@@H](F)C[C@H]3C#N)(CC1)CC2` [Example 3, (2S,4S)-1-[[N-(4-methylbicyclo[2,2,2]oct-1-yl)amino]acetyl]-4-fluoropyrrolidine-2-carbonitrile], half-maximal inhibition in test [2] (IC50) was put at 0.25 nM. In test [1], this compound returned an inhibition at 1 mg/kg of 100%.

Compound `N#C[C@@H]1C[C@H](F)CN1C(=O)CNC12CCC(CO)(CC1)CC2` [Example 5, (2S,4S)-1-[[N-(4-hydroxymethylbicyclo[2,2,2]oct-1-yl)amino]acetyl]-4-fluoropyrrolidine-2-carbonitrile] gave a concentration for half-maximal inhibition (IC50) in test [2] of 1.1 nM.
